{
  "source": "patent US6696413B2",
  "about": "(Hexal AG, priority 1995, dated 2004)",
  "origin": "cited, not measured here",
  "conditions": "16 hours after application of 300 μg of a 5 percent vitamin E solution in ethanol per cm^2",
  "data": [
    {"substance": "vitamin E", "values": [
      {"measurement": "vitamin E found in the horny layer", "result": 10.7, "unit": "%"},
      {"measurement": "vitamin E found in underlying skin layers", "result": "about 40.9%"}
    ]}
  ]
}
